US20190209506A1, “METHODS OF REDUCING OR PREVENTING OXIDATION OF LDL OR LIPID MEMBRANES IN A SUBJECT IN NEED THEREOF” (Amarin Pharmaceuticals Ireland Limited, priority 2018, published 2019)

Columns and labels:
[1] = tested on: human sdLDL; assay: Copper-induced sdLDL oxidation with fatty acids, TBARS/MDA (Example 14); type: biochemical; settings: 1.0 μM
Procedure: Venous blood was collected from healthy volunteers into vacutainer tubes. Plasma was separated by centrifugation at 3000 g for 25 min at 4° C. and adjusted to a density of 1.020 g/mL with KBr. sdLDL was isolated from the plasma of healthy volunteers by iodixanol density gradient ultracentrifugation and adjusted to a final apolipoprotein concentration of 2 mg/mL. An aliquot of sdLDL (50 μL) was incubated with either 10 μL vehicle (ethanol) or 10 μL FA (EPA, ETE, AA, EA, DHA, DPA, ALA, LA or SA) treatment stock solution (100 μM) for 30 min at 37° C. Oxidation was initiated with addition of initiator CuSO4 (10.0 μM). At certain time points (0, 40, 60, and 120 minutes), […] were removed from each subfraction and combined with 1.0 mL thiobarbituric acid (0.5%), 10 μL trichloroacetic acid (10%), 10 μL butylated hydroxytoluene (BHT; 35 mM in ethanol), and 10 μL ethylenediaminetetraacetic acid (EDTA; 5 mM). Sample aliquots were incubated at 100° C. for 30 min and then assayed for the formation of thiobarbituric acid reactive substances (TBARS), which have a molar absorptivity (ε) value of 1.56×105 M^−1 cm^−1 at 532 nm and are largely derived from the reaction of thiobarbituric acid with MDA, a reactive aldehyde produced by sdLDL oxidation. Sample TBARS concentrations were determined spectrophotometrically by measuring sample absorbances against a standard curve derived from the hydrolysis of 1,1,3,3-tetramethoxypropane.

[2] = Glucose-induced membrane lipid peroxidation (LOOH, CHOD-iodide assay) in DLPC/cholesterol vesicles (Examples 4, 5); type: biochemical; settings: for inhibition of the peroxidative effects of glucose (LOOH formation) / effect on LOOH formation / lipid peroxidation: 1:30 drug-to-phospholipid mole ratio; for effect on LOOH formation / lipid peroxidation: 72- and 96-hour time points
Procedure: All test compounds were further diluted in ethanol or aqueous buffer as needed. Glucose was prepared in saline buffer (0.5 mM HEPES, 154 mM NaCl, pH 7.3) at 11.0 mM (200 mg/dL). CHOD-iodide color reagent (stock) was prepared, with slight modification, as described by from El-Saadani et al. (J. […] Samples were shell-dried under nitrogen gas and placed under vacuum for 1 h to remove residual solvent. […] Lipid suspensions were then vortexed for 3 min at ambient temperature to form MLVs. All MLV samples were subjected to time-dependent autoxidation by incubating at 37° C. in an uncovered, shaking water bath. This method allows lipid peroxidation to occur gradually without requiring the use of exogenous initiators. Small aliquots (5-100 μL) of each sample were removed, immediately following MLV preparation (0 hour) and after exposing samples to oxidative conditions for 72 or 96 hour, and combined with 1.0 mL of activated CHOD-iodide color reagent. Aliquot volume was reduced with each successive time point to ensure that spectrophotometric readings were within the optimal adsorption range. Test samples were covered and incubated in darkness at room temperature for at least 4 hr. Sample absorbances were then measured against a CHOD blank at 365 nm using a Beckman DU-640 spectrophotometer. The CHOD colorimetric assay is based on the oxidation of iodide (I^−) by lipid hydroperoxide (LOOH) to form triiodide the quantity of which is directly proportional to the amount of LOOH present in the lipid sample. The molar absorptivity (ε) of I3^− is 2.46×10^4 M^−1 cm^−1 at 365 nm. […] All MLV samples were subjected to time-dependent autoxidation by incubating at 37° C. in an uncovered, shaking water bath. This method allows lipid peroxidation to occur gradually without requiring the use of exogenous initiators. Small aliquots (5-100 μL) of each sample were removed, immediately following MLV preparation (0 hr) and after exposing samples to oxidative conditions for 72 or 96 hr, and combined with 1.0 mL of activated CHOD-iodide color reagent. Aliquot volume was reduced with each successive time point to ensure that spectrophotometric readings were within the optimal adsorption range. Test samples were covered and incubated in darkness at room temperature for at least 4 hr. Sample absorbances were then measured against a CHOD blank at 365 nm using a Beckman DU-640 spectrophotometer. […] The molar absorptivity (ε) of I3^− is 2.46×10^4 M^−1 cm^−1 at 365 nm.

[3] = tested on: HUVECs; assay: NO release from HUVECs incubated with treated, oxidized sdLDL (Example 12); type: cell-based, human; settings: sdLDL treated at 10.0 μM
Procedure: All samples, with the exception of non-oxidized sdLDL controls, were subjected to copper-induced oxidation for 1 hour. Human umbilical vein endothelial cells (HUVECs) were incubated with the various sdLDL samples, stimulated with calcium, and monitored for nitric oxide (NO) and peroxynitrite (ONOO^−) release using nanosensor technology.

[4] = tested on: human LDL; assay: Copper-induced oxidation of unfractionated LDL, TBARS (Example 7); type: biochemical; settings: 1 hour
Procedure: An experiment to study the antioxidant effect of EPA in LDL and small dense LDL (“sdLDL”) was performed. LDL and sdLDL were isolated from the plasma of healthy volunteers by iodixanol density gradient ultracentrifugation, and adjusted to a final apolipoprotein concentration of 2 mg/mL. […] Vitamin E was also incubated with sample aliquots as a positive control.

[5] = tested on: Human sdLDL particles; assay: Kinetic model of MDA formation in sdLDL oxidation (Example 15); type: biochemical
Procedure: Human sdLDL particles were isolated and incubated in vitro with vehicle or with varying concentrations of EPA, DHA, or EPA and DHA. Once incubated, copper sulfate (CuSO4) was added to induce oxidation of the sdLDL particles. The sdLDL particles were then assayed for the detection of malondialdehyde (MDA), a known marker of oxidation.
Various kinetic models were evaluated and eventually fit to the sdLDL oxidation data to describe the concentration of MDA in each sample. Both population parameter estimates and associated variabilities were generated for the formation of MDA (Kf) and degradation of MDA (Ke) rates.
The final kinetic model is a 1 compartment model having a first order Ke and an additive first order Kf.

Row | Structure (SMILES) | inhibition of lipoprotein oxidation versus vehicle ([1]; 40 minutes) | inhibition of oxidation compared to vehicle ([1]; 60 minutes) | MDA Equivalents (Mean ± SD) ([1]; time point 0 min) | MDA Equivalents (Mean ± SD) ([1]; time point 40 min) | MDA Equivalents (Mean ± SD) ([1]; time point 60 min) | MDA Equivalents (Mean ± SD) ([1]; time point 120 min) | antioxidant effect (LOOH formation) ([2]; 1.0 μM, glucose 200 mg/dL, 96 hours) | inhibition of the peroxidative effects of glucose (LOOH formation) ([2]; glucose 200 mg/dL, 72 hours) | inhibition of the peroxidative effects of glucose (LOOH formation) ([2]; glucose 200 mg/dL, 96 hours) | effect on LOOH formation / lipid peroxidation ([2]; glucose) | effect on membrane LOOH formation ([2]; EPA at 1.0 and 5.0 μM, glucose) | LOOH formation compared to vehicle, glucose only, glucose and EA, glucose and ETE ([2]; Example 5, model membranes treated with glucose) | increase of NO release compared to non-oxidized sdLDL [3] | increase of NO release compared to oxidized LDL [3] | inhibition of TBARS formation compared to vehicle-treated control ([4]; highest treatment concentration (10)) | reduction of Kf (formation rate of MDA) ([5]; 5 μM, after 8 hours) | reduction of Kf predicted by the kinetic model ([5]; 10 μM alone, predicted) | effect on unfractionated LDL oxidation ([4]; 10 μM)
1 | CC/C=C\C/C=C\C/C=C\C/C=C\C/C=C\CCCC(=O)O [EPA, cis-5,8,11,14,17-eicosapentaenoic acid] | 70% | 44% | 0.30 ± 0.04 µM | 3.14 ± 0.19 µM | 6.42 ± 0.24 µM | 12.46 ± 0.75 µM | separate and potent antioxidant effects | 88% | 86% | significantly inhibited LOOH formation | inhibit membrane LOOH formation in a dose-dependent manner | significantly less LOOH formation | 23% | 53% | > 90% | 54% | 73% | –
2 | Cc1c(C)c2c(c(C)c1O)CC[C@@](C)(CCC[C@H](C)CCC[C@H](C)CCCC(C)C)O2 [vitamin E, α-tocopherol, reference compound] | – | – | – | – | – | – | – | – | – | no significant effect on lipid peroxidation | – | – | – | – | – | – | – | no significant effect on unfractionated LDL oxidation
